The values below come from paper PMC6199744, “Development of Chemical Proteomics for the Folateome and Analysis of the Kinetoplastid Folateome” (ACS Infectious Diseases, 2018).

Structures are written as SMILES. Like-named read-outs stand apart in the source and are kept apart here.

Holding throughout (assay type): binding
In assay [1] the target is T1, HeLa cell extract proteins (Homo sapiens, UniProt P22234).
T1 construct: endogenous in cells; host or cells: HeLa cell extract
T1 sequence (P22234 1-425): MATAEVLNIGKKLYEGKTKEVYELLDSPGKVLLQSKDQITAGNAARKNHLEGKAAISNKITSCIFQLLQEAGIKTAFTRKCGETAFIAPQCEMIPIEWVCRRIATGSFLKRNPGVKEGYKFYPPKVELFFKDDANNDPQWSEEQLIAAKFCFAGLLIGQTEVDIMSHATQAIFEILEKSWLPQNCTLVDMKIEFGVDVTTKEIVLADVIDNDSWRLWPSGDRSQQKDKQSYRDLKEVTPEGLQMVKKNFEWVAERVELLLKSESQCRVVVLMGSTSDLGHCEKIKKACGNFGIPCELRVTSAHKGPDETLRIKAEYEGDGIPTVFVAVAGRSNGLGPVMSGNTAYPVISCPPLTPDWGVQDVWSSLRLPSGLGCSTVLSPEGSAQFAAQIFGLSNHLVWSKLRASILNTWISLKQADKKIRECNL

Assay [2] concerns the target T2, HeLa cell extract proteins (Homo sapiens, UniProt O60313).
T2 construct: endogenous in cells; host or cells: HeLa cell extract
T2 sequence (O60313 88-960): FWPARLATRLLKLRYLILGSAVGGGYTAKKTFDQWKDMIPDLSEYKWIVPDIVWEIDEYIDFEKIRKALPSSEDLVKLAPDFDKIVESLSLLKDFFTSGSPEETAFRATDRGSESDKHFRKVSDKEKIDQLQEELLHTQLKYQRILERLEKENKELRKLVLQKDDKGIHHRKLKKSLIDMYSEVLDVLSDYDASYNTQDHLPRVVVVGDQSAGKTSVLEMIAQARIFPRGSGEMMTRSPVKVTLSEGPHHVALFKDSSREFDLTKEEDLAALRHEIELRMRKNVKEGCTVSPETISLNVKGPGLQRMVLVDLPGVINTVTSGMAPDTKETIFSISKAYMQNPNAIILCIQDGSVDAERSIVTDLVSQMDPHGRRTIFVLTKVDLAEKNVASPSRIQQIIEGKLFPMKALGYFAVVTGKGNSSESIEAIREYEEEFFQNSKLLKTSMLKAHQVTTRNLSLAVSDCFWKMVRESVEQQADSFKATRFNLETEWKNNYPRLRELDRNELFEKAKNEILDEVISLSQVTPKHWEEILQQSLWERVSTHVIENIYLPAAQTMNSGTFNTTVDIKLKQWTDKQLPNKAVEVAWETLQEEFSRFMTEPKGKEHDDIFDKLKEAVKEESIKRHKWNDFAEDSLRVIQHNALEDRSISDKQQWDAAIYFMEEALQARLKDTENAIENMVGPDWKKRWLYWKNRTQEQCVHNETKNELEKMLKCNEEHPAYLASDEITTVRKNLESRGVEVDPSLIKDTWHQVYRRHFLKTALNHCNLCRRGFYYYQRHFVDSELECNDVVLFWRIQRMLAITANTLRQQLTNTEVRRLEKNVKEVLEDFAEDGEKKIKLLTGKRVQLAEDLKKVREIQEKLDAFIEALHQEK

The target of assay [3] is T3, HeLa cell extract proteins (Homo sapiens, UniProt P00338).
T3 construct: endogenous in cells; host or cells: HeLa cell extract

Assay [4] addresses T4, HeLa cell extract proteins (Homo sapiens, UniProt P04183).
T4 construct: endogenous in cells; host or cells: HeLa cell extract
T4 sequence (P04183 1-234): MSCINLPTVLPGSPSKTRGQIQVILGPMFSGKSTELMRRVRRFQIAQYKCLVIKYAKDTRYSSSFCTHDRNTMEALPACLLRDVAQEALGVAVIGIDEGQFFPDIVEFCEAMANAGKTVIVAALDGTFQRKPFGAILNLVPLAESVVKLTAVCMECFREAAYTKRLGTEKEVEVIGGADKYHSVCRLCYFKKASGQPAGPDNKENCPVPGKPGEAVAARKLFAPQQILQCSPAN

The target of assay [5] is T5, HeLa cell extract proteins (Homo sapiens, UniProt Q15907).
T5 construct: endogenous in cells; host or cells: HeLa cell extract
T5 sequence (Q15907 1-218): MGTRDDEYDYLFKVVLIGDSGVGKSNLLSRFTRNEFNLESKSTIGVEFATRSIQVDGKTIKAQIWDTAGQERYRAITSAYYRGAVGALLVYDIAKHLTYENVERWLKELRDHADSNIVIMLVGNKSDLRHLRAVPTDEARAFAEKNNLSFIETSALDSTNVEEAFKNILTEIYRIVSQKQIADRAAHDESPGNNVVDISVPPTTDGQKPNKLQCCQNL

Assay [6] has as its target T6, HeLa cell extract proteins (Homo sapiens, UniProt Q8WWC4).
T6 construct: endogenous in cells; host or cells: HeLa cell extract
T6 sequence (Q8WWC4 97-291): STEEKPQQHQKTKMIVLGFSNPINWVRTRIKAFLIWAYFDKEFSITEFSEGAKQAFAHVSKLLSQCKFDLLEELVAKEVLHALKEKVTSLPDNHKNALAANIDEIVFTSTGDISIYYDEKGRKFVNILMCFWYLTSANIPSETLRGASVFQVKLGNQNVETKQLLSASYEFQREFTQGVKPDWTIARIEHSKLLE

Assay [7] concerns the target T7, HeLa cell extract proteins (Homo sapiens, UniProt P54819).
T7 construct: endogenous in cells; host or cells: HeLa cell extract

Assay [8] has as its target T8, HeLa cell extract proteins (Homo sapiens, UniProt Q13618).
T8 construct: endogenous in cells; host or cells: HeLa cell extract

Assay [9] concerns the target T9, HeLa cell extract proteins (Homo sapiens, UniProt O75306).
T9 construct: endogenous in cells; host or cells: HeLa cell extract

Assay [10] addresses T10, HeLa cell extract proteins (Homo sapiens, UniProt P11940).
T10 construct: endogenous in cells; host or cells: HeLa cell extract

The target in assay [11] is T11, HeLa cell extract proteins (Homo sapiens, UniProt P12270).
T11 construct: endogenous in cells; host or cells: HeLa cell extract
T11 sequence (P12270 whole entry): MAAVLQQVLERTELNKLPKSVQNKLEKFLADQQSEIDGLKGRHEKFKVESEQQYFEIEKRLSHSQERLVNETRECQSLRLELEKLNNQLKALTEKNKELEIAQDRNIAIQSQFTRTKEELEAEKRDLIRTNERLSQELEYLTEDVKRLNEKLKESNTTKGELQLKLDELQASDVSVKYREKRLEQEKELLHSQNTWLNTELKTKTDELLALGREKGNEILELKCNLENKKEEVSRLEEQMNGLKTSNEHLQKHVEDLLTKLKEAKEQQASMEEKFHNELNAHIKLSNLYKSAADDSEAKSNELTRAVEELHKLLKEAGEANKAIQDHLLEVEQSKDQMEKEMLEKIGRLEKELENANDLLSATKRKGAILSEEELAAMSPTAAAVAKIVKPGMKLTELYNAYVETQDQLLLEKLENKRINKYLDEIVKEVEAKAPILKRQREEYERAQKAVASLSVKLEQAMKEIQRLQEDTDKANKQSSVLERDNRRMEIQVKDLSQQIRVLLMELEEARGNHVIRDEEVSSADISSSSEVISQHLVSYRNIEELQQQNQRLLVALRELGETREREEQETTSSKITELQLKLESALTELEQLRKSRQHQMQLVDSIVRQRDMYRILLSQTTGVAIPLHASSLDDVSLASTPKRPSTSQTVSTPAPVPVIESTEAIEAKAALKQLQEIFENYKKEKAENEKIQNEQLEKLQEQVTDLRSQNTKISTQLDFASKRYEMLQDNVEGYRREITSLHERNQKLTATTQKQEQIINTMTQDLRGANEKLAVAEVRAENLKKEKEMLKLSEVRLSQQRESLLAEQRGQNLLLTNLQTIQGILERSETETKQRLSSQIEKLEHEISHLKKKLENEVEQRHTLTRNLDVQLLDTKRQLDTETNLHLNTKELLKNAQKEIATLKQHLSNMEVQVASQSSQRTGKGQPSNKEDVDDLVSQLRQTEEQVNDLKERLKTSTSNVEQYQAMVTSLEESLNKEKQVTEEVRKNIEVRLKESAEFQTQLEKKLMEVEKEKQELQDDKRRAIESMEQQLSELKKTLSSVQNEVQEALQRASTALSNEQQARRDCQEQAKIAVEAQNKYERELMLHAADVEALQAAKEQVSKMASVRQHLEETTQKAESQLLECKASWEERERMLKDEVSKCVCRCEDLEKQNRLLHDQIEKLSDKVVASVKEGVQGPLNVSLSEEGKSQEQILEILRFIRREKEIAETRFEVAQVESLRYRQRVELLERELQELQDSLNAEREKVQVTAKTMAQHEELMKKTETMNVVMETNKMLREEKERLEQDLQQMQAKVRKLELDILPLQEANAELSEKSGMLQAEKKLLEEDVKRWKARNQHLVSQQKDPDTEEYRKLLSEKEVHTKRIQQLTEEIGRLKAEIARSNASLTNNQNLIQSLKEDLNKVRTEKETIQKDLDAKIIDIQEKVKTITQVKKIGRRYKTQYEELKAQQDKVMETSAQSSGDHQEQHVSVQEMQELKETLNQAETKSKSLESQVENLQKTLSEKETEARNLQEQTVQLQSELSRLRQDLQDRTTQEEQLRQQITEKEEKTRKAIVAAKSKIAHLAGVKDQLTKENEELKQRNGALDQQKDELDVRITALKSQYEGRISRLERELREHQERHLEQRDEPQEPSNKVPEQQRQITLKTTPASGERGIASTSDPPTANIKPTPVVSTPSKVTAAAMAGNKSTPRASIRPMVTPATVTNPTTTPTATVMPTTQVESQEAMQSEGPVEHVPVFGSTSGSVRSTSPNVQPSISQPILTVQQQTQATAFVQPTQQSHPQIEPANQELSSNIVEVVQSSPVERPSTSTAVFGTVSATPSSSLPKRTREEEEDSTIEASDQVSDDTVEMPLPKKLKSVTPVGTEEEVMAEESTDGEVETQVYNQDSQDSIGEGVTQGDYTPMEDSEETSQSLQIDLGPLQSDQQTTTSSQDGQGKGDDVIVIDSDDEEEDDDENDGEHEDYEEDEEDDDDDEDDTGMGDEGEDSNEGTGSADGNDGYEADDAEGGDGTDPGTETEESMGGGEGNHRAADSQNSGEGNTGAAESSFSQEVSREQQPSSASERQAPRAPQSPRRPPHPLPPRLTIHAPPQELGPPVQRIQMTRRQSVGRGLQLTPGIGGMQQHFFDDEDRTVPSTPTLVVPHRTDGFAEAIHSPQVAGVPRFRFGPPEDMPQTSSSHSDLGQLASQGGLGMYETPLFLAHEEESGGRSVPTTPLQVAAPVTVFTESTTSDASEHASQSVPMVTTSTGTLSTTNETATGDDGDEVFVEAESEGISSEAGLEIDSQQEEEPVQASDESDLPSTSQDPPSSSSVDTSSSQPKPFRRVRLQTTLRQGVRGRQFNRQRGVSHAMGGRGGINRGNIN

Assay [12] deals with T12, HeLa cell extract proteins (Homo sapiens, UniProt Q06830).
T12 construct: endogenous in cells; host or cells: HeLa cell extract
T12 sequence (Q06830 1-199): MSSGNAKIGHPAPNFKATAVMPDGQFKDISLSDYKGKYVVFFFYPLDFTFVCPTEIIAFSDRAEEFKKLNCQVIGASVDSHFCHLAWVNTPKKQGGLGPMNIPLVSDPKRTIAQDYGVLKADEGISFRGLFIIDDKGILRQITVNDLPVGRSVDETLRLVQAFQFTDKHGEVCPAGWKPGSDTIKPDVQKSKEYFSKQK

The mark [13] stands for this setting: HeLa, protein TK1 (29 KDA PROTEIN).
[14] abbreviates: HeLa, protein LDHA (ISOFORM 1 OF L-LACTATE DEHYDROGENASE A CHAIN.).

T8 sequence (Q13618 whole entry): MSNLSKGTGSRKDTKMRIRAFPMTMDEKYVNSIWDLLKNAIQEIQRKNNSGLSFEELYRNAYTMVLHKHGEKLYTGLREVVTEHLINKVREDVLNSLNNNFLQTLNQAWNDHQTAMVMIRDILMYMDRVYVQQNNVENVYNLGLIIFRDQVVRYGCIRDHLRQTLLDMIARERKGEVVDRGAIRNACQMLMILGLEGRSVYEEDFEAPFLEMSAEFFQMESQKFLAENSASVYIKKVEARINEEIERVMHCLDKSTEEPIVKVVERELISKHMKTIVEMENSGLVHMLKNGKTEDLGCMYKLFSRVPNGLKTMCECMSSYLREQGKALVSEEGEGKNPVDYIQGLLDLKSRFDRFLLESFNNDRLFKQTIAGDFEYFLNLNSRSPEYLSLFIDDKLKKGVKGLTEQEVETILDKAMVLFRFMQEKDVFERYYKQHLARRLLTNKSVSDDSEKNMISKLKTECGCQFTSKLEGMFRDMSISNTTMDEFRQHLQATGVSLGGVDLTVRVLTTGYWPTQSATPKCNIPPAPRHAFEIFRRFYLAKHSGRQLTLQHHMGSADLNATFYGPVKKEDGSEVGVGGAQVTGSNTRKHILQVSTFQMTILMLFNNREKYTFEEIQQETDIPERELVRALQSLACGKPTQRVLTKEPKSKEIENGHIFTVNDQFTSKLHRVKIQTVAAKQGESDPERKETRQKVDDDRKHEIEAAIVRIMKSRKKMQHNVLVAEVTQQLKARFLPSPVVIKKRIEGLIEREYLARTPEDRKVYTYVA
T10 sequence (P11940 whole entry): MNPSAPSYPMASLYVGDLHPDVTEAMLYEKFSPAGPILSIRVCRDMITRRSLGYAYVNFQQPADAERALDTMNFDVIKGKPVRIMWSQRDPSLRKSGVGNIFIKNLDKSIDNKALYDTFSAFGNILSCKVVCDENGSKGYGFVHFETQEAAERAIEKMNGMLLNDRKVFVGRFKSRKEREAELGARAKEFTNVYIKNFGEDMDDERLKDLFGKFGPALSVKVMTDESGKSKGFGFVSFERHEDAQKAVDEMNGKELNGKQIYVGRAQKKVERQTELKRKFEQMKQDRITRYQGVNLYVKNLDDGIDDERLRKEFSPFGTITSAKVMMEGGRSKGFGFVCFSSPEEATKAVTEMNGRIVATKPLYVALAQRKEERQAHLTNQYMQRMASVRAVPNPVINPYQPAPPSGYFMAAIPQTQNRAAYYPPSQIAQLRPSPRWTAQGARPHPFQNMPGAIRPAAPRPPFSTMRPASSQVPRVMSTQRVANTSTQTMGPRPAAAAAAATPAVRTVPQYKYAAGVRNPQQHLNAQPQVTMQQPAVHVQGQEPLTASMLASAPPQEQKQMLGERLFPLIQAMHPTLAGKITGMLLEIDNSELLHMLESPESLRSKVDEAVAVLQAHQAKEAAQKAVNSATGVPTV
T9 sequence (O75306 34-463): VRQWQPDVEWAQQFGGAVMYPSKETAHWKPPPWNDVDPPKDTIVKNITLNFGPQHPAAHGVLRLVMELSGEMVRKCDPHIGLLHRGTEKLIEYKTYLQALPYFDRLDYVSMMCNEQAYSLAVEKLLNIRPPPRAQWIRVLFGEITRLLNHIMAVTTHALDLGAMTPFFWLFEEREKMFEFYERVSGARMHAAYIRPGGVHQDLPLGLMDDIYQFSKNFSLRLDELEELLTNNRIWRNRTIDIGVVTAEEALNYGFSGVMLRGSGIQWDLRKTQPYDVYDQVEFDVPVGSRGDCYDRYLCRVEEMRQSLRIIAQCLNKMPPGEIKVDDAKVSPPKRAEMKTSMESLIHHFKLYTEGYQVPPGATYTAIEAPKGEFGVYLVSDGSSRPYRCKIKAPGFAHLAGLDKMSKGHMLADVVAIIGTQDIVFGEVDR

For `Nc1nc2cccc(-c3ccccc3)c2n1Cc1ccc(Cl)c(Cl)c1` [compound 3], the “fold changes relative to vehicle control” value in assay [1] (protein PAICS, HeLa) amounted to 0.94; in [2] (HeLa, protein OPA1) it was 1.01; in assay [3] (HeLa, protein LDHA (ISOFORM 1 OF L-LACTATE DEH[…] CHAIN.)), 0.92 fold; in [4] (protein TK1, HeLa), 1.16; in [5] (protein RAB11B, HeLa) it was 0.97; in assay [6] (HeLa, protein C2ORF47), 1.11. In addition, the “fold changes relative to vehicle control” value is reported as 0.91 in assay [7] (captured protein AK2, HeLa); 0.93 in [8] (captured protein CUL3, HeLa); 1.3 in [9] (HeLa, protein NDUFS2); 0.94 in assay [10] (HeLa, protein PABPC1); 1.2 in [11] (protein TPR, HeLa); 0.85 in assay [12] (protein PRDX1, HeLa).

Turning to `NCCOCCOCC(=O)Nc1nc2ncc(CNc3ccc(C(=O)NC(CCC(=O)O)C(=O)O)cc3)nc2c(=O)[nH]1` (stereo not drawn) [compound 6], the “fold changes relative to vehicle control” value in [1] (HeLa, protein PAICS) came to 1.22; in [2] (HeLa, protein OPA1), 0.87; in assay [3] (HeLa, protein LDHA), 1.23; in assay [4] (setting [13]), 1.06; in [5] (HeLa, protein RAB11B) it was 1.14; in assay [6] (protein C2ORF47, HeLa), 0.99. The “fold changes relative to vehicle control” value in assay [7] (protein AK2, HeLa) is 0.95; in assay [8] (HeLa, protein CUL3), 0.97; in assay [9] (protein NDUFS2, HeLa), 1.12; in assay [10] (HeLa, protein PABPC1), 0.97; in assay [11] (HeLa, captured protein TPR) it was 1.51; in assay [12] (HeLa, protein PRDX1), 1.1.

As for `Nc1nc2[nH]cc(CCc3ccc(C(=O)N[C@@H](CCC(=O)O)C(=O)O)cc3)c2c(=O)[nH]1` [PTX, pemetrexed], the “fold changes relative to vehicle control” value in assay [1] is listed as 0.86; in [2], 0.84; in [3], 1.15; in [4] it was 0.93; in assay [5], 0.94; in [6], 0.92. Also, the “fold changes relative to vehicle control” value in [7] was found to be 0.86; in assay [8], 0.92; in assay [9], 0.92; in assay [10], 0.96; in assay [11], 1.21; in [12], 1.05.

As to `Nc1nc2c(c(=O)[nH]1)N(C=O)C(CNc1ccc(C(=O)N[C@@H](CCC(=O)O)C(=O)O)cc1)CN2` (stereo partly drawn) [LEU, leucovorin], the “fold changes relative to vehicle control” value in [1] (HeLa, protein PAICS) was 0.97; in assay [2] (HeLa, protein OPA1), 0.88; in assay [3] (HeLa, protein LDHA), 1.07; in [4] (setting [13]), 0.97; in assay [5] (HeLa, protein RAB11B), 0.87; in [6] (protein C2ORF47, HeLa) it was 0.93. Besides, the “fold changes relative to vehicle control” value in assay [7] (protein AK2, HeLa) was 0.99; in [8] (HeLa, protein CUL3), 0.92; in assay [9] (protein NDUFS2, HeLa), 0.86; in [10] (HeLa, protein PABPC1), 0.98; in [11] (HeLa, captured protein TPR) it was 1.35; in assay [12] (HeLa, protein PRDX1), 1.01.

Regarding `CCCCCCOc1ccc(Cc2cnc(N)nc2N)cc1` [compound 1], the “fold changes relative to vehicle control” value came to 1.07 in assay [1] (protein PAICS, HeLa); 0.82 in assay [2] (HeLa, protein OPA1); 1.48 fold in assay [3] (setting [14]); 0.96 in [4] (protein TK1, HeLa); 1.02 in [5] (protein RAB11B, HeLa); 1.1 in assay [6] (HeLa, protein C2ORF47). The “fold changes relative to vehicle control” value in [7] (captured protein AK2, HeLa) is reported as 1.04; in assay [8] (captured protein CUL3, HeLa), 1.01; in [9] (HeLa, protein NDUFS2) it was 1.15; in assay [10] (HeLa, protein PABPC1) it was 0.97; in assay [11] (protein TPR, HeLa), 1.19; in assay [12] (protein PRDX1, HeLa), 1.24.

For the compound `NCCCNc1ccc(C(=O)NC(CCC(=O)O)C(=O)O)cc1` (stereo not drawn) [compound 7], the “fold changes relative to vehicle control” value in [1] (HeLa, protein PAICS) came out at 0.98; in assay [2] (HeLa, protein OPA1), 0.94; in assay [3] (HeLa, protein LDHA), 0.95; in assay [4] (setting [13]) it was 1.12; in [5] (HeLa, protein RAB11B), 0.84; in assay [6] (protein C2ORF47, HeLa) it was 1.06. Besides, the “fold changes relative to vehicle control” value in assay [7] (protein AK2, HeLa) is 1.08; in [8] (HeLa, protein CUL3), 0.91; in assay [9] (protein NDUFS2, HeLa), 1.13; in assay [10] (HeLa, protein PABPC1), 1.05; in [11] (HeLa, captured protein TPR) it was 1.06; in assay [12] (HeLa, protein PRDX1), 0.87.

Turning to `CCCCCCOc1cccc(Cc2cnc(N)nc2N)c1` [compound 2], the “fold changes relative to vehicle control” value turned out to be 1.68 in assay [1] (protein PAICS, HeLa); 1.02 in assay [2] (HeLa, protein OPA1); 2.61 fold in assay [3] (setting [14]); 1.16 in assay [4] (protein TK1, HeLa); 1.44 in assay [5] (protein RAB11B, HeLa); 1.06 in [6] (HeLa, protein C2ORF47). For the same compound, the “fold changes relative to vehicle control” value in assay [7] (captured protein AK2, HeLa) stood at 1; in assay [8] (captured protein CUL3, HeLa), 1.17; in assay [9] (HeLa, protein NDUFS2) it was 1.12; in assay [10] (HeLa, protein PABPC1), 1.19; in [11] (protein TPR, HeLa) it was 1.44; in assay [12] (protein PRDX1, HeLa) it was 2.05.
